In patent US20180353445A1, “METHODS AND COMPOSITIONS RELATING TO PROTEASOME INHIBITOR RESISTANCE” (Whitehead Institute for Biomedical Research, priority 2017, published 2018):

Tests used:
20S proteasome = 20S proteasome (Homo sapiens, UniProt P28072+P28074); experiment: Native gel analysis of proteasomal complexes, Suc-LLVY-AMC substrate overlay; type: biochemical; conditions: control cells, 12 nM, 24 hours
From the text: FIGS. 2A-2F: Reducing expression of 19S subunits increases the levels of active 20S proteasomes and protects cancer cells from proteasome (FIG. 2A) HepG2 cells were infected with 80 shRNAs targeting 20 different subunits of the proteasome and 10 control shRNAs. Infected cells were then exposed to […] bortezomib and cell number was examined 4 days later. The plot represents the average (+/−SEM) of four different hairpins targeting the indicated proteasome subunits and their relative cell number following bortezomib treatment. 19S subunits are depicted with orange bars, the control with a blue bar and 20S subunits with green bars. […] (FIG. 2C) The relative cell number of cells harboring a control shLacZ or each of 4 individual shRNAs targeting shPSMD2 was analyzed 4 days after addition of the indicated concentrations of bortezomib. (FIG. 2D) HepG2 cells stably expressing four different shRNAs targeting the PSMD2 subunit and a control shRNA (lacZ) were analyzed by western blot for the indicated proteins 24 hours with or without bortezomib treatment. […] Proteasome complex levels were detected by immunoblot analysis and 20S proteasome activity by measuring the hydrolysis of Suc-LLVY-AMC by substrate overlay assays. * p<0.05 **p<0.01. […]

T47D cells = experiment: Competition co-culture of TurboRFP PSMD2 shRNA and GFP control shRNA T47D cells, FACS/microscopy; type: cell-based, human; conditions: 5 nM, 48 hours
Protocol: We created two cell lines—one line that expresses red fluorescent protein (turboRFP) and the doxycycline-inducible PSMD2-targeting shRNA and another line that expresses green fluorescent protein (GFP) and a doxycycline-inducible control shRNA (FIG. 6A). First, we induced shRNA expression with doxycycline for 48 hours. After recovery, we mixed shPSMD2-RFP and shControl-GFP cells at different ratios (either 1:1, 1:2, 1:5 or 1:10), adding the cells with reduced PSMD2 as the minority subpopulation. Twenty-four hours after plating, we treated these mixed populations of cells for 48 hours with increasing concentrations of bortezomib (5, 7.5 or 10 nM). We allowed the cells to recover in the absence of bortezomib and then we quantified the red and green cells by FACS analysis (FIG. 6A) and captured representative images by fluorescence microscopy (FIG. 6B),
The experiment described in Example 10 was repeated with minor differences using a panel of different proteasome inhibitors: MLN2238, MLN9708, and oprozomib T47D cells harboring a doxycycline inducible control shRNA (GFP) or a doxycycline-inducible PSMD2 shRNA (TurboRFP) were incubated with doxycycline for 3 days. Cells were collected, counted, and plated at a 1:10 ratio of TurboRFP-expressing PSMD2 shRNA cells/GFP expression control shRNA cells in the absence of Dox. Proteasome inhibitors were added at the specified concentrations and cells were maintained in culture. Cells were allowed to recover in the absence of the proteasome inhibitor and then analyzed by FACS (FIG. 8B, top) or visualized by microscopy (FIG. 8B, bottom). In the absence of proteasome inhibitors, the initial plating ratio of these cells (1:10) was maintained over the duration of the experiment (FIG. 8B). […]
Visualization and FACS analysis of GFP/RFP levels—cells were trypsinized in 100 μL Accumax® solution and further diluted into 100 μl PBSx1. The number of cells with red or areen fluorescent proteins was measured by MACSQuant® VYB according to manufactures protocol. […]

[1] = tested on: MCF7, HEK293 and T47D cells; experiment: Viability of cells grown in glucose (glycolytic) vs galactose (Hi-OXPHOS); type: cell-based, human
Protocol: FIGS. 40A-40D: Cancer cell metabolism alters sensitivity to elesclomol.
FIGS. 41A-41B: Cancer cell metabolism alters sensitivity to elesclomol.
FIGS. 51A-51D: Elesclomol preferentially targets cells in the Hi-OXPHOS state. […] The relative cell growth (color coded) was analyzed 72 hours post compound addition. Plotted are the mean SD of at least three replicas and the calculated EC50s (FIGS. 51B-51C). […] Reactive groups are indicated with a colored circle.
FIGS. 57A-57C: Elesclomol preferentially targets cells in the Hi-OXPHOS state. […] Analogs named compound 1-6. […] Plotted are the mean SD of at least three replicas and the calculated EC50s (FIG. 57A and FIG. 57C).

cancer cells = experiment: Cell viability, elesclomol and elesclomol analogs (cell titer-glo); type: cell-based; conditions: across a variety of tumor types
From the text: In addition to the intrinsic sensitivity of certain cancer cells to elesclomol, as our drug screen indicated, the sensitivity of cancer cells to elesclomol can be further enhanced by forcing them into a Hi-OXPHOS state.
We examined several elesclomol analogs (FIG. 57B) to determine the structural features that are important for mediating its cytotoxicity. […] Substitution of oxygen for even one of the sulfur groups (compound-5) reduced the activity of elesclomol by 300 fold. The loss of activity was even more pronounced (>>300 fold) when both sulfurs were substituted (compound-6) (FIGS. 51C-51D, FIG. 57C). Various other modifications to the elesclomol scaffold were tolerated, as long as the core sulfur geometry remained intact.
Cell viability—where indicated relative cell number following different drug treatment was conducted by plating cells at 1000 cells/well in 384 well plates. Indicated concentrations of compounds were added 24 hour after plating at least in triplicate for each condition. Viability was measured 72 hours after drug addition using cell titer-glo (Promega) according to manufactures protocol. […]

| SMILES | 20S proteasome function (20S proteasome) | shift of surviving population toward PSMD2 shRNA cells (T47D cells) | activity against cells in the HI-OXPHOS state [1] | toxicity when grown in the presence of Galactose [1] | sensitivity of cells utilizing mitochondria metabolism vs glycolytic cells ([1]; MCF7 and HEK293 cells) | inhibition of cancer cell growth (cancer cells) |
| --- | --- | --- | --- | --- | --- | --- |
| CC(C)C[C@H](NC(=O)[C@H](Cc1ccccc1)NC(=O)c1cnccn1)B(O)O [bortezomib] | nearly complete inactivation | substantially shifted the populations of surviving cells |  |  |  |  |
| CN(NC(=O)CC(=O)NN(C)C(=S)c1ccccc1)C(=S)c1ccccc1 [elesclomol] |  |  | preferential activity | toxicity is enhanced | much more sensitive | potent inhibitor of cancer cell growth |
